Reference: the NIST ThermoML archive (doi:10.1016/j.fluid.2006.03.020)
Numbers after ± are expanded uncertainties.

Assay: excess molar enthalpy (molar enthalpy of mixing); xn = mol fraction of the nth substance listed
Conditions: 303.15 K, 101 kPa, Liquid, Flow calorimetry

C1COCCO1 [1,4-dioxane] + CCCCCCCC
Conditions | excess molar enthalpy [kcal/mol]
x1 = 0.0577 | 0.0985 ± 0.00287
x1 = 0.1002 | 0.161 ± 0.00311
x1 = 0.151 | 0.228 ± 0.00311
x1 = 0.2075 | 0.291 ± 0.00335
x1 = 0.2491 | 0.334 ± 0.00359
x1 = 0.3048 | 0.376 ± 0.00382
x1 = 0.3676 | 0.4156 ± 0.00406
x1 = 0.4092 | 0.4316 ± 0.00406
x1 = 0.4536 | 0.4479 ± 0.00406
x1 = 0.507 | 0.4522 ± 0.00406
x1 = 0.5583 | 0.4529 ± 0.00406
x1 = 0.6089 | 0.4381 ± 0.00406
x1 = 0.6599 | 0.4195 ± 0.00406
x1 = 0.6959 | 0.4001 ± 0.00382
x1 = 0.7553 | 0.3599 ± 0.00359
x1 = 0.8045 | 0.314 ± 0.00359
x1 = 0.8586 | 0.248 ± 0.00335
x1 = 0.8997 | 0.192 ± 0.00311
x1 = 0.9352 | 0.131 ± 0.00311

C1COCCO1 [1,4-dioxane] + C1CCCCC1
Conditions | excess molar enthalpy [kcal/mol]
x1 = 0.0547 | 0.0884 ± 0.00287
x1 = 0.153 | 0.211 ± 0.00311
x1 = 0.2558 | 0.302 ± 0.00335
x1 = 0.3916 | 0.3674 ± 0.00359
x1 = 0.5072 | 0.38 ± 0.00382
x1 = 0.6511 | 0.346 ± 0.00359
x1 = 0.7029 | 0.315 ± 0.00335
x1 = 0.7606 | 0.269 ± 0.00335
x1 = 0.8499 | 0.189 ± 0.00311
x1 = 0.9288 | 0.097 ± 0.00287

CCCCCCCC [octane] + C1CCCCC1
Conditions | excess molar enthalpy [kcal/mol]
x1 = 0.0275 | 0.0124 ± 0.00239
x1 = 0.0507 | 0.0191 ± 0.00239
x1 = 0.0896 | 0.0301 ± 0.00239
x1 = 0.1482 | 0.0413 ± 0.00239
x1 = 0.1912 | 0.0492 ± 0.00239
x1 = 0.2487 | 0.055 ± 0.00239
x1 = 0.2922 | 0.0588 ± 0.00239
x1 = 0.3709 | 0.0619 ± 0.00239
x1 = 0.4676 | 0.0617 ± 0.00239
x1 = 0.5738 | 0.0574 ± 0.00239
x1 = 0.642 | 0.0516 ± 0.00239
x1 = 0.7256 | 0.043 ± 0.00239
x1 = 0.79 | 0.0356 ± 0.00239
x1 = 0.8267 | 0.0296 ± 0.00239
x1 = 0.869 | 0.0237 ± 0.00239
x1 = 0.8976 | 0.0179 ± 0.00239
